Experimental data taken from PubChem BioAssay (NCI).
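96-well plates; 48 h exposure; 5 concentrations. Endpoints by linear interpolation between flanking doses. Not reached: highest tested concentration assigned. At the GI50, growth is halved. TGI denotes the concentration required for complete inhibition of growth.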

Columns and labels:
Experiment in all cases: NCI-60 cell line screen, 48 h
IGROV1 ovarian = test system: IGROV1 ovarian
SNB-19 CNS = test system: SNB-19 CNS
CCRF-CEM leukemia = test system: CCRF-CEM leukemia
HL-60(TB) leukemia = test system: HL-60(TB) leukemia
SK-MEL-28 melanoma = test system: SK-MEL-28 melanoma
HCT-15 colon = test system: HCT-15 colon
PC-3 prostate = test system: PC-3 prostate
UACC-257 melanoma = test system: UACC-257 melanoma
NCI-H226 lung = test system: NCI-H226 lung
A549 NSCLC = test system: A549 NSCLC
HT29 colon = test system: HT29 colon
HOP-92 NSCLC = test system: HOP-92 NSCLC
OVCAR-3 ovarian = test system: OVCAR-3 ovarian
MCF7 breast = test system: MCF7 breast
EKVX NSCLC = test system: EKVX NSCLC
COLO 205 colon = test system: COLO 205 colon
NCI-H522 lung = test system: NCI-H522 lung
U251 CNS = test system: U251 CNS
UACC-62 melanoma = test system: UACC-62 melanoma
HOP-62 NSCLC = test system: HOP-62 NSCLC
SK-MEL-2 melanoma = test system: SK-MEL-2 melanoma
NCI-H460 lung = test system: NCI-H460 lung
SW-620 colon = test system: SW-620 colon
NCI-H23 lung = test system: NCI-H23 lung
OVCAR-4 ovarian = test system: OVCAR-4 ovarian
MDA-MB-435 = test system: MDA-MB-435
SR leukemia = test system: SR leukemia
SF-539 CNS = test system: SF-539 CNS
LOX IMVI melanoma = test system: LOX IMVI melanoma
KM12 colon = test system: KM12 colon
M14 melanoma = test system: M14 melanoma
RPMI-8226 leukemia = test system: RPMI-8226 leukemia
TK-10 renal = test system: TK-10 renal
ACHN renal = test system: ACHN renal
SK-OV-3 ovarian = test system: SK-OV-3 ovarian
HS 578T breast = test system: HS 578T breast
SN12C renal = test system: SN12C renal
MOLT-4 leukemia = test system: MOLT-4 leukemia
NCI/ADR-RES ovarian = test system: NCI/ADR-RES ovarian
OVCAR-5 ovarian = test system: OVCAR-5 ovarian
T-47D breast = test system: T-47D breast
786-0 renal = test system: 786-0 renal
OVCAR-8 ovarian = test system: OVCAR-8 ovarian
MDA-MB-231 breast = test system: MDA-MB-231 breast
MALME-3M melanoma = test system: MALME-3M melanoma
MDA-MB-468 breast = test system: MDA-MB-468 breast
UO-31 renal = test system: UO-31 renal
SF-268 CNS = test system: SF-268 CNS
SK-MEL-5 melanoma = test system: SK-MEL-5 melanoma
BT-549 breast = test system: BT-549 breast
A498 renal = test system: A498 renal
RXF 393 renal = test system: RXF 393 renal
SNB-75 CNS = test system: SNB-75 CNS
HCC-2998 colon = test system: HCC-2998 colon
SF-295 CNS = test system: SF-295 CNS
DU-145 prostate = test system: DU-145 prostate
K-562 leukemia = test system: K-562 leukemia
HCT-116 colon = test system: HCT-116 colon
CAKI-1 renal = test system: CAKI-1 renal

`COc1ccc(CN2[C@H](C(=O)NCCCCCCC(=O)NO)Cc3c([nH]c4ccccc34)[C@H]2C2CC2)cc1` was tested, and the GI50 (IGROV1 ovarian) was 1.41 µM, the TGI (IGROV1 ovarian) was 4.69 µM and the GI50 (SNB-19 CNS) was 2.11 µM. The TGI (SNB-19 CNS) was 12.5 µM, the GI50 (CCRF-CEM leukemia) was 1.25 µM and the TGI (CCRF-CEM leukemia) was > 20 µM. For the same molecule, the GI50 (HL-60(TB) leukemia) was 2.12 µM, the TGI (HL-60(TB) leukemia) was > 20 µM and the GI50 (SK-MEL-28 melanoma) was 1.66 µM. The TGI (SK-MEL-28 melanoma) was 6.85 µM, the GI50 (HCT-15 colon) was 4.34 µM and the TGI (HCT-15 colon) was > 16.5 µM. For the same molecule, the GI50 (PC-3 prostate) was 1.88 µM, the TGI (PC-3 prostate) was > 20 µM and the GI50 (UACC-257 melanoma) was 1.76 µM. The TGI (UACC-257 melanoma) was > 9.72 µM, the GI50 (NCI-H226 lung) was 2.9 µM and the TGI (NCI-H226 lung) was > 16.5 µM. The GI50 (A549 NSCLC) was 2.15 µM, the TGI (A549 NSCLC) was > 13 µM and the GI50 (HT29 colon) was 1.35 µM. The TGI (HT29 colon) was 10.6 µM, the GI50 (HOP-92 NSCLC) was 1.29 µM and the TGI (HOP-92 NSCLC) was 4.38 µM. For the same molecule, the GI50 (OVCAR-3 ovarian) was 1.89 µM, the TGI (OVCAR-3 ovarian) was 8.38 µM and the GI50 (MCF7 breast) was 1.8 µM. For the same molecule, the TGI (MCF7 breast) was > 16.1 µM, the GI50 (EKVX NSCLC) was 2.25 µM and the TGI (EKVX NSCLC) was > 20 µM. It also gave a GI50 (COLO 205 colon) of 1.63 µM, a TGI (COLO 205 colon) of 4.87 µM and a GI50 (NCI-H522 lung) of 1.33 µM. For the same molecule, the TGI (NCI-H522 lung) was 5.21 µM, the GI50 (U251 CNS) was 1.81 µM and the TGI (U251 CNS) was 7.26 µM. It also gave a GI50 (UACC-62 melanoma) of 1.01 µM, a TGI (UACC-62 melanoma) of 2.56 µM and a GI50 (HOP-62 NSCLC) of 2.16 µM. For the same molecule, the TGI (HOP-62 NSCLC) was > 10.6 µM, the GI50 (SK-MEL-2 melanoma) was 0.998 µM and the TGI (SK-MEL-2 melanoma) was 18.1 µM. For the same molecule, the GI50 (NCI-H460 lung) was 1.78 µM, the TGI (NCI-H460 lung) was > 20 µM and the GI50 (SW-620 colon) was 1.15 µM. For the same molecule, the TGI (SW-620 colon) was 3.53 µM, the GI50 (NCI-H23 lung) was 1.88 µM and the TGI (NCI-H23 lung) was 8.19 µM. For the same molecule, the GI50 (OVCAR-4 ovarian) was 5.24 µM, the TGI (OVCAR-4 ovarian) was > 20 µM and the GI50 (MDA-MB-435) was 1.16 µM. For the same molecule, the TGI (MDA-MB-435) was 3.49 µM, the GI50 (SR leukemia) was 1.12 µM and the TGI (SR leukemia) was > 20 µM. It also gave a GI50 (SF-539 CNS) of 1.82 µM, a TGI (SF-539 CNS) of 8.74 µM and a GI50 (LOX IMVI melanoma) of 1.31 µM. The TGI (LOX IMVI melanoma) was 3.59 µM, the GI50 (KM12 colon) was 2.14 µM and the TGI (KM12 colon) was > 14.2 µM. For the same molecule, the GI50 (M14 melanoma) was 2.02 µM, the TGI (M14 melanoma) was > 20 µM and the GI50 (RPMI-8226 leukemia) was 1.87 µM. The TGI (RPMI-8226 leukemia) was > 20 µM, the GI50 (TK-10 renal) was 1.39 µM and the TGI (TK-10 renal) was 7.36 µM. The GI50 (ACHN renal) was 1.72 µM, the TGI (ACHN renal) was 6.11 µM and the GI50 (SK-OV-3 ovarian) was 1.17 µM. For the same molecule, the TGI (SK-OV-3 ovarian) was 3.28 µM, the GI50 (HS 578T breast) was 1.65 µM and the TGI (HS 578T breast) was 10.7 µM. It also gave a GI50 (SN12C renal) of 2.19 µM, a TGI (SN12C renal) of 8.58 µM and a GI50 (MOLT-4 leukemia) of 1.96 µM. The TGI (MOLT-4 leukemia) was > 20 µM, the GI50 (NCI/ADR-RES ovarian) was 5.42 µM and the TGI (NCI/ADR-RES ovarian) was > 20 µM. For the same molecule, the GI50 (OVCAR-5 ovarian) was 1.09 µM, the TGI (OVCAR-5 ovarian) was 3.18 µM and the GI50 (T-47D breast) was 1.52 µM. The TGI (T-47D breast) was 4.71 µM, the GI50 (786-0 renal) was 3.39 µM and the TGI (786-0 renal) was > 20 µM. For the same molecule, the GI50 (OVCAR-8 ovarian) was 1.95 µM, the TGI (OVCAR-8 ovarian) was > 10.2 µM and the GI50 (MDA-MB-231 breast) was 1.41 µM. The TGI (MDA-MB-231 breast) was 4.2 µM, the GI50 (MALME-3M melanoma) was 0.946 µM and the TGI (MALME-3M melanoma) was 3.84 µM. For the same molecule, the GI50 (MDA-MB-468 breast) was 1.02 µM, the TGI (MDA-MB-468 breast) was > 5.34 µM and the GI50 (UO-31 renal) was 2.28 µM. For the same molecule, the TGI (UO-31 renal) was 9.5 µM, the GI50 (SF-268 CNS) was 2.87 µM and the TGI (SF-268 CNS) was > 13.7 µM. The GI50 (SK-MEL-5 melanoma) was 1.25 µM, the TGI (SK-MEL-5 melanoma) was 2.97 µM and the GI50 (BT-549 breast) was 5.34 µM. The TGI (BT-549 breast) was > 19.1 µM, the GI50 (A498 renal) was 1.13 µM and the TGI (A498 renal) was 4.2 µM. For the same molecule, the GI50 (RXF 393 renal) was 0.898 µM, the TGI (RXF 393 renal) was 2.45 µM and the GI50 (SNB-75 CNS) was 0.397 µM. For the same molecule, the TGI (SNB-75 CNS) was > 5.95 µM, the GI50 (HCC-2998 colon) was 1.61 µM and the TGI (HCC-2998 colon) was 4.55 µM. For the same molecule, the GI50 (SF-295 CNS) was 1.42 µM, the TGI (SF-295 CNS) was 4.33 µM and the GI50 (DU-145 prostate) was 2.12 µM. The TGI (DU-145 prostate) was > 20 µM, the GI50 (K-562 leukemia) was 1.86 µM and the TGI (K-562 leukemia) was > 20 µM. For the same molecule, the GI50 (HCT-116 colon) was 1.16 µM, the TGI (HCT-116 colon) was > 13.3 µM and the GI50 (CAKI-1 renal) was 1.48 µM. It also gave a TGI (CAKI-1 renal) of 7.56 µM.
